Experimental data taken from patent US10300000B2, “Inhibition of melanogenesis by chemically modified curcumins” (The Research Foundation for The State University of New York, priority 2016, dated 2019).

Legend:
[1] = test system: HEM-DP cells; assay: Melanin content quantification in human epidermal melanocytes; format: cell-based; details: 48 hours
Procedure: Primary cultures of human epidermal melanocytes from a darkly pigmented donor were seeded at 2.2×10^5 cells/well in 1.5 ml media in 12-well plates and incubated for 48 hours. The test compounds were added to cultures and controls were treated with 0.16% DMSO, and further incubated for another 48 hours. For evaluation of melanin content, cells in the wells were trypsinized and cell pellets were washed in PBS. After aspiration, 250 μL of 1N NaOH was added and heated to 70° C. to solubilize melanin. The aliquots were then transferred to a 96-well plate and absorbance was read at 475 nm using microplate reader. A portion of the lysate was used to evaluate total protein content using […] bincinchonic acid (BCA) assay (Pierce BCA kit, Thermo Scientific). The absorbance of melanin was normalized to the total protein content for each lysate and reported as % of control.

[2] = test system: B16F10 cells; assay: Melanin content quantification in B16F10 cells; format: cell-based, mouse; details: for inhibition of melanin content / effect on melanin content (words): 48 hours; for effect on melanin content (words): B16F10, tested concentrations; for IC50: B16F10 cells exposed for 48 hours, non-linear curve fitting, read-out: IC50-Melanin Inhibition
Procedure: B16F10 cells were seeded at 1×10^5 cells/well in 1.5 ml media in 12-well plates and incubated for 24 hours. […] For quantification of melanin content, cells were trypsinized and cell pellets were washed in PBS. Cell pellets were also visually observed for lightening of the intracellular pigment. After aspiration, 250 μL of 1N NaOH was added and heated to 70° C. to solubilize melanin. The aliquots were then transferred to a 96-well plate and absorbance was read at 475 nm using a microplate reader. A portion of the lysate was used to evaluate total protein content using BCA assay. The melanin absorbance was normalized by total protein content and expressed as % of control.

[3] = biological target: T1, cellular tyrosinase in HEM-DP cells (Homo sapiens, UniProt P14679); assay: Intracellular tyrosinase activity in human melanocytes; format: cell-based; details: 48 hours
T1 construct: endogenous in cells; host or cells: HEM-DP (primary human epidermal melanocytes, darkly pigmented donor)
T1 sequence (P14679 19-529): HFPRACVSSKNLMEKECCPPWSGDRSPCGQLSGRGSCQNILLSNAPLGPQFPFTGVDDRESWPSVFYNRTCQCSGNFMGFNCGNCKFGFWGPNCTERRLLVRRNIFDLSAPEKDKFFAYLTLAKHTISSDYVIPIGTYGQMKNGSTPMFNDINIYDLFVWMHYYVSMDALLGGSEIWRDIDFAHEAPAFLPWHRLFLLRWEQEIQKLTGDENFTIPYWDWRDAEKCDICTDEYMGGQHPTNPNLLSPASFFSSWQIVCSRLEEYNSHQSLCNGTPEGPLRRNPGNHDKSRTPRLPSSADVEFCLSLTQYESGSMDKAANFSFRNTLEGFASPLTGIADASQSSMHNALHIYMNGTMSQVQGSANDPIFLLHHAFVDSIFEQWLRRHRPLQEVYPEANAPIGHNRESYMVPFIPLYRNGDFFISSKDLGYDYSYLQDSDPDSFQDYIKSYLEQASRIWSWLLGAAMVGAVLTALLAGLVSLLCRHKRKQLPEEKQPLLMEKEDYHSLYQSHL
Procedure: We quantitated the cellular tyrosinase activity of human melanocytes based on established methods. Briefly, human epidermal melanocytes from a darkly pigmented donor (HEM-DP) were cultured in 12-well tissue culture plates at density of 1.5×10^5 cells/well. After 48 hrs. media was changed and test compounds were added, and further incubated for 48 hrs. At the end of treatments, cells were trypsinized and cell pellets were washed in PBS and lysed with lysis buffer under ice for 30 minutes and then centrifuged to remove cellular debris. 50 μl of lysates were then aliquoted in 96-well microplate and 150 μl of freshly prepared 3 mM L-DOPA was added. The absorbance was then measured kinetically at 475 nm every 30 seconds for 30 minutes at 30° C. using microplate reader (Versamax®). The % inhibition of tyrosinase activity was calculated by determining melanin formation rates from the linear range of the slopes of melanin formation over time for the different samples and calculating % inhibition from the measured velocities of melanin formation.

[4] = biological target: T2, intracellular tyrosinase in HEM-DP cells (Homo sapiens, UniProt P14679); assay: Recovery study of intracellular tyrosinase activity in human melanocytes; format: cell-based
T2 construct: endogenous in cells; host or cells: HEM-DP (primary human epidermal melanocytes, darkly pigmented donor)
T2 sequence (P14679 19-529): T1 sequence (P14679 19-529)
Procedure: In order to study if the melanocytes could recover from inhibited tyrosinase activity after exposure to the CMCs, we employed a model for reversibility of inhibition of tyrosinase activity inhibition. This can establish safety of the compounds since irreversible inhibition of tyrosinase activity could damage melanocyte synthetic machinery with potential loss of the protective function of melanin. […] Briefly, HEM-DP were plated in 6-well plates at 2.3×10^5 cells/well and grown for 3 days and then CMCs were added. Tyrosinase activity was estimated after 2 day exposure in cellular lysates and another set of cultures were continued with fresh media without the compounds for further 5 days (with media change at day 3), in order to study reversibility of melanin inhibition.

[5] = biological target: T3, intracellular tyrosinase in B16F10 cells (Mus musculus, UniProt P11344); assay: Recovery study of intracellular tyrosinase activity in B16F10 cells; format: cell-based; details: for tyrosinase activity after removal of compound: 2 day recovery post 2 day exposure
T3 construct: endogenous in cells; host or cells: B16F10
T3 sequence (P11344 19-533): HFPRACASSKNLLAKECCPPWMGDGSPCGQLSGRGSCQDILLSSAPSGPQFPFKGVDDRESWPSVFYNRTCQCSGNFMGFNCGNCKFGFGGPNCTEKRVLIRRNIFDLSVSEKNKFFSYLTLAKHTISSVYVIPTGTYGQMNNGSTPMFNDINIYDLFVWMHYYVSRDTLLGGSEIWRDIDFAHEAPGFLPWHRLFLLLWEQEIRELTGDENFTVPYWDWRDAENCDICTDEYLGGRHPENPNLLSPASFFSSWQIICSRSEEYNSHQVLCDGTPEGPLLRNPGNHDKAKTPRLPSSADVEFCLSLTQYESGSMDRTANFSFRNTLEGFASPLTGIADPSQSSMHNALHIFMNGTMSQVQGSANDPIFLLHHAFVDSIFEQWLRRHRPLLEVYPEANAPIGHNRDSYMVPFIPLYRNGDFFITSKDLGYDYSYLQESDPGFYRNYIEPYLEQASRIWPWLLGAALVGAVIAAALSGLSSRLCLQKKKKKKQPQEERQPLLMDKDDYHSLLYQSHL
Procedure: In order to establish reversibility of tyrosinase inhibition by the CMCs, we conducted a “recovery” study over a 2 day interval using the highest concentrations of the compounds which produced maximum tyrosinase activity inhibition without toxicity. B16F10 were plated in six-well plates at 3.5×10^4 cells/well and compounds were added (PC-10 μM, CMC2.14-10 μM, CMC2.5-20 μM, CMC2.23-25 μM and CMC2.24 at 20 μM) next day. Tyrosinase activity in one set of cultures after detachment and lysis as described herein was estimated after 2 day exposure while another set of cultures were continued with fresh media without the compounds to study reversibility of tyrosinase activity inhibition for another 2 days. Results are expressed as % tyrosinase activity for both 2 day exposure and 2 day recovery post 2 day exposure.

SMILES | reduction in melanin content ([1]; 10 μM) | reduction in melanin content ([1]; 20 μM) | inhibition of melanin content ([2]; B16F10, 25 μM) | effect on melanin content (words) [2] | effect on melanin content (words) ([2]; listed as 2.23) | IC50 [2] | inhibition of cellular tyrosinase activity ([3]; 5 μM) | inhibition of cellular tyrosinase activity ([3]; 10 μM) | inhibition of cellular tyrosinase activity ([3]; 20 μM) | recovery of tyrosinase activity ([4]; 5 days after removal, CMC2.24 10 μM, CMC2.23 and CMC2.5 20 μM) | reduction of tyrosinase activity at the exposure time ([4]; 20 μM, 2 day exposure) | tyrosinase activity after removal of compound ([5]; B16F10, 20 μM) | inhibition of melanin content ([2]; B16F10, 10 μM) | loss of tyrosinase activity ([5]; B16F10, 10 μM, 2 day exposure) | tyrosinase activity after removal of compound ([5]; B16F10, 10 μM)
COc1cc(/C=C/C(=O)C(C(=O)/C=C/c2ccc(O)c(OC)c2)C(=O)Nc2ccccc2)ccc1O [CMC2.23] | 20% | 20% | 46.4% | most potent inhibition | moderate inhibition | 24.1 µM | 25% | 35% | 49% | partially recovered |  |  |  |  | 
COC(=O)C(C(=O)C=Cc1ccc(O)c(OC)c1)C(=O)C=Cc1ccc(O)c(OC)c1 (stereo not shown) [CMC2.5, 4-methoxycarbonyl curcumin] |  | ~20% |  |  |  |  |  |  | 16% |  | 12% | completely recovered |  |  | 
COC(=O)C(C(=O)/C=C/c1ccc(O)cc1)C(=O)/C=C/c1ccc(O)cc1 [CMC2.14] |  |  |  | moderate inhibition |  | 15.1 µM |  |  |  |  |  |  | 32.21% | up to 75% | 100%
